The source of these data is patent US20180186769A1, “6-AMINO-5-FLUORO-5-(FLUOROMETHYL)-2,3,4,5-TETRAHYDROPYRIDIN-2-YL-PHENYL-5-(METHOXY-D3)-PYRAZINE-2-CARBOXAMIDES AND FLUORINATED DERIVATIVES THEREOF AS BACE1 INHIBITORS” (H. Lundbeck A/S, priority 2016, published 2018).

The nature of data set [1]: Clearance in microsomes, rat. The note with it: 1 microM, read-out: CLint, Rat (L/h/kg) ± SD (converted). The data set is classed as in vitro ADME. The text has this: (§1) Deuterated compounds were compared to their non-deuterated parent counterparts to determine the impact of deuteration on clearance results
Data set [2] in a line: Clearance in microsomes, cyno. It counts as in vitro ADME. The note with it: cynomolgus monkey, 1 microM, read-out: CLint, Cyno (L/h/kg) ± SD (converted).
Description: as §1

Regarding `[2H]C([2H])([2H])Oc1cnc(C(=O)Nc2ccc(F)c([C@]3(C)CC[C@@](F)(CF)C(N)=N3)c2)cn1` [Example 1, N-(3-((2S,5S)-6-amino-5-fluoro-5-(fluoromethyl)-2-methyl-2,3,4,5-tetrahydropyridin-2-yl)-4-fluorophenyl)-5-(methoxy-d3)pyrazine-2-carboxamide], the CLint scaled at 1 µM in data set [1] was 0.9 L/h/kg; in data set [2], 10 L/h/kg.
